In US10499645B2, “Nematicidal aqueous suspension concentrate compositions” (Monsanto Technology LLC, priority 2012, dated 2019):

What was measured:
Type in all cases: physicochemical
[1] = Mechanical pressure analysis (CARVER press, XRD); conditions: approximately 15,000 psi for approximately 20 seconds
Experimental: Batches of 3-phenyl-5-(thiophen-2-yl)-1,2,4-oxadiazole polymorphic Forms I and II were placed in a CARVER press and compressed at approximately 15,000 psi for approximately 20 seconds in two separate experiments. XRD analysis was performed on the samples. The resulting XRD pattern matched the starting material in both experiments, as shown in FIGS. 5A and 5B for Forms I and II, respectively. […] The Form II used in this experiment was obtained by recrystallization from the melt of Form I, as described in Example 14, above.

[2] = Grinding analysis (ball mill, XRD); conditions: ball mill 2 minutes at 4800 oscillations per minute
Experimental: Batches of 3-phenyl-5-(thiophen-2-yl)-1,2,4-oxadiazole polymorphic Forms I and II were ground using a CRESCENT WIG-L-BUG ball mill for 2 minutes at 4800 oscillations per minute (3.2 m/s) in two separate experiments. […] The Form II used in this experiment was obtained by recrystallization from the melt of Form I, as described in Example 14, above, […]

[3] = Non-competitive slurry experiments (XRD); conditions: ambient temperature
Experimental: In addition to the solvent recrystallization experiments, non-competitive slurry experiments were performed to search for new solid-state forms of 3-phenyl-5-(thiophen-2-yl)-1,2,4-oxadiazole. These experiments rely on solubility differences of different polymorphic forms (if the compound exists in different polymorphic forms).
Essentially, when a solid is mixed with solvent to create slurry, a saturated solution eventually results. The solution is saturated with respect to the polymorphic form dissolved. […] In addition, noncompetitive slurry experiments are often useful in identifying solvents that form solvates with the compound.
The slurry experiments were performed by exposing excess supplied material to solvents and agitating the resulting suspensions for several days at ambient temperature. The solids were filtered using a WHATMAN Grade 1 apparatus (11 μm pore size) and analyzed by XRD to determine the resulting form(s). To avoid possible desolvation or physical change after isolation, the samples were not dried before X-ray analysis.

[4] = Storage stability of polymorphs (XRD)

| Compound | change of polymorphic form under pressure [1] | polymorphic transformation on grinding [2] | form resulting from slurry experiments (summary) ([3]; approximately 12 days of slurring) | storage stability / hydrate formation (XRD) ([4]; 75 and 84% RH, ambient temperature, 4 weeks, open Petri dishes) | form resulting from slurry experiments (summary) ([3]; approximately 7 days of slurring) | storage stability (XRD) ([4]; scintillation vial in a hood, ambient conditions, approximately 6 days) |
| --- | --- | --- | --- | --- | --- | --- |
| c1ccc(-c2noc(-c3cccs3)n2)cc1 [Form I, 3-phenyl-5-(thiophen-2-yl)-1,2,4-oxadiazole] | did not reveal any changes in the polymorphic form | no transformation | Form I | does not form a hydrate and appears to be thermodynamically stable over time at ambient conditions |  |  |
| c1ccc(-c2noc(-c3cccs3)n2)cc1 [Form II, 3-phenyl-5-(thiophen-2-yl)-1,2,4-oxadiazole] | did not reveal any changes in the polymorphic form | transformed to Form I |  |  | Form I | showed signs of transformation to Form I |
